Measurements as given in patent publication US20200247812A1 (Integral Biosciences Private Limited, priority 2018, published 2020).

Columns and labels:
[1] = target: T1, ALK 5 (Homo sapiens, UniProt P36897); experiment: In vitro kinase assay (ALK5 IC50, LanthaScreen Terbium labeled TR-FRET); assay type: biochemical; details: TGF-β kinase 6 nM, ATP 10 μM, read-out: Enzyme Activity ALK 5 IC50
T1 sequence (P36897 34-503): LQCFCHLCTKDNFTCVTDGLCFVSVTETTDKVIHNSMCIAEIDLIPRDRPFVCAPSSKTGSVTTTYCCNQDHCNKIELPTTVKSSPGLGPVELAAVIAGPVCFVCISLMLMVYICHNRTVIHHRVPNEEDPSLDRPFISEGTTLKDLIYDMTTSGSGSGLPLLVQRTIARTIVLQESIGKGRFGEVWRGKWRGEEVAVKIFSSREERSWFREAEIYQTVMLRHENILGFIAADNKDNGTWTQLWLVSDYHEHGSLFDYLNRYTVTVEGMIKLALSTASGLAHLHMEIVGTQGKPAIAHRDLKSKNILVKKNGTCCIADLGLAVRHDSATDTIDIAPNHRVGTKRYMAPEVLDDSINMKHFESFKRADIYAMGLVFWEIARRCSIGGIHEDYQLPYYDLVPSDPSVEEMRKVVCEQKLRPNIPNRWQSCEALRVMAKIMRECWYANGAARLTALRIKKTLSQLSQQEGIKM
Summary of the method: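 LanthaScreen Tb TR-FRET: ALK5 (6 nM) preincubated 10 min with 3-fold diluted compounds, then 10 μM ATP and 200 nM fluorescent PolyGT substrate added for 1 h at room temperature. Stopped with EDTA/Tb antibody; 520/495 nm emission read. IC50 from four-parameter fit versus DMSO and no-enzyme controls.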

[2] = system: phosphorylation of Smad-2 in THP-1 cells; experiment: Inhibition of phosphorylation of Smad-2 in THP-1 cells (Phospho-Smad2 ELISA); assay type: cell-based
[3] = system: human PBMC's; experiment: Viability in CD3e/CD28 activated human PBMC's (resazurin); assay type: cell-based; details: 72 hr
Description: IC50 values of compounds for determining viability in CD3e/CD28 activated human PBMC's (hPBMC-34033, Cat # CC-2702; Lonza) cultured in LGM3 medium, Cat # CC #3211; Lonza). Human PBMC's (0.25×10^6 cells/well) were activated with Anti-human CD3e (0.5 μg/ml, coated overnight at 4° C.; Cat #16-0037-81, eBioscience) and then incubated with serial dilutions of compounds (3 fold, 8 point dose response starting at 30 μM) for 30 min at 37° C., 5% CO2 in an incubator (cell culture conditions) prior to treating them with Anti-human CD28 (0.25 μg/ml soluble; Cat #16-0289-81, eBiosciences). Human PBMC's were further incubated under cell culture conditions for 72 hr following which experiment was terminated by replacing the medium with 100 μl of 1 mM of resazurin (R7017; Sigma) prepared in culture medium and the plates were further incubated in culture conditions for 4 hr. Fluorescence was then measured using a multimodal plate reader (Biotek Synergy Neo) at an excitation wavelength of 535 nm and emission wavelength of 590 nm to obtain relative fluorescence units. Data analysis was done by subtracting the background fluorescence (only medium blank) value from each reading and then normalizing with the vehicle control (DMSO treated cells) to obtain percent survival/proliferation. Percent survival at different doses was used to calculate IC50 by fitting the curve to the “four-parameter variable slope logistic model” using Prism Graph Pad.

[4] = system: HCT116; experiment: Cell viability assay (resazurin), HCT116; assay type: cell-based; details: Homo sapiens, HCT-116, 72-144 hr
Description: (§1) Different cell lines such as pancreatic, (MIA PaCa-2; ATCC®CRL-1420™ & and Panc-1; CRL-1469™), liver carcinoma (HepG2; ATCC® HB-8065™), lung epithelial carcinoma (A549; ATCC® CCL-185™) and others were seeded in their respective medium (DMEM, Cat #10569044, MEM, Cat #41090036; RPMI, Cat #22400089; all with 10% FBS, Gibco, ThermoFisher) at a cell count of 3000 cells per 100 μl per well in a 96 well edge plate (167425; ThermoFisher). Cells were allowed to grow at 37° C. for 24 hr in 5% CO2 (culture conditions) in a Nuaire incubator (humidified). Serially diluted compounds (100 μl) were added to the culture plate 24 hr later and the cultures were further incubated in culture conditions for specified time depending on doubling time of specific cell line (ranging from 72-144 hr). Experiment was terminated at the completion of incubation time with the drug by replacing the medium with 100 μl of 1 mM of resazurin (R7017; Sigma) prepared in respective culture medium and the plates were further incubated in culture conditions for 4 hr. Fluorescence was then measured using a multimodal plate reader (Biotek Synergy Neo) at an excitation wavelength of 535 nm and emission wavelength of 590 nm to obtain relative fluorescence units. Data analysis was done by subtracting the background fluorescence (only medium blank) value from each reading and then normalizing with the vehicle control (DMSO treated cells) to obtain percent survival/proliferation. Percent survival at different doses was used to calculate IC50 by fitting the curve to the “four-parameter variable slope logistic model” using Prism Graph Pad.

[5] = system: A549; experiment: Cell viability assay (resazurin), A549; assay type: cell-based; details: Homo sapiens, 72-144 hr
Description: as §1

[6] = system: MDA_MB-231; experiment: Cell viability assay (resazurin), MDA_MB-231; assay type: cell-based; details: Homo sapiens, MDA-MB-231, 72-144 hr
Description: as §1

[7] = system: A427; experiment: Cell viability assay (resazurin), A427; assay type: cell-based; details: Homo sapiens, A-427, 72-144 hr
Description: as §1

[8] = system: AsPC-1; experiment: Cell viability assay (resazurin), AsPC-1; assay type: cell-based; details: Homo sapiens, ASPC1, 72-144 hr
Description: as §1

[9] = system: MCF7; experiment: Cell viability assay (resazurin), MCF7; assay type: cell-based; details: Homo sapiens, 72-144 hr
Description: as §1

[10] = system: Panc-10.05; experiment: Cell viability assay (resazurin), Panc-10.05; assay type: cell-based; details: Homo sapiens, Panc1005, 72-144 hr
Description: as §1

[11] = system: HepG2; experiment: Cell viability assay (resazurin), HepG2; assay type: cell-based; details: Homo sapiens, 72-144 hr
Description: as §1

[12] = system: THP1; experiment: Cell viability assay (resazurin), THP1; assay type: cell-based; details: Homo sapiens, THP-1, 72-144 hr
Description: as §1

[13] = system: MV-4-11; experiment: Cell viability assay (resazurin), MV-4-11; assay type: cell-based; details: Homo sapiens, MV4-11, 72-144 hr
Description: as §1

**Q.** Which results are given for CC(C)c1[nH]c(=O)c(-c2cc(Cl)ccc2F)cc1Nc1ccncc1C(=O)NC[C@H](C)O [Compound 1.5, (S)-4-((5-(5-chloro-2-fluorophenyl)-2-isopropyl-6-oxo-1,6-dihydropyridin-3-yl)amino)-N-(2-hydroxypropyl)nicotinamide]?
**A.** IC50 [1]: ≤ 0.5 µM; % Inhibition of pSmad2 ([2]; 3 μg): 47.3%; % Inhibition of pSmad2 ([2]; 10 μg): 53.3%

**Q.** How did the IC50 [1] turn out when C[C@@H](CO)NC(=O)c1cnccc1Nc1cc(-c2cc(Cl)ccc2F)c(=O)[nH]c1N(C)C [Compound 1.10, (S)-4-((5-(5-chloro-2-fluorophenyl)-2-(dimethylamino)-6-hydroxypyridin-3-yl)amino)-N-(1-hydroxypropan-2-yl)nicotinamide] was run?
**A.** ≤ 0.5 µM

**Q.** And the IC50 [3]?
**A.** 24.5 µM

**Q.** What about the “% Inhibition of pSmad2” value ([2]; 3 μg) of the same molecule?
**A.** 36.7%

**Q.** And the “% Inhibition of pSmad2” value ([2]; 10 μg)?
**A.** 45.1%

**Q.** For COC(=O)c1cnccc1Nc1cc(-c2cc(Cl)ccc2F)c(=O)[nH]c1N(C)C [Compound 1.29, methyl 4-((5-(5-chloro-2-fluorophenyl)-2-(dimethylamino)-6-hydroxypyridin-3-yl)amino)nicotinate], which IC50 [1] is on record?
**A.** 0.5 to 2 µM

**Q.** What about the IC50 [4] of the same molecule?
**A.** > 30 µM

**Q.** What does the source list for CN(C)c1[nH]c(=O)c(-c2cc(Cl)ccc2F)cc1Nc1ccncc1C(N)=O [Compound 1.32, 4-((5-(5-chloro-2-fluorophenyl)-2-(dimethylamino)-6-hydroxypyridin-3-yl)amino)nicotinamide]?
**A.** IC50 [1]: ≤ 0.5 µM; IC50 [4]: > 30 µM; IC50 [5]: > 30 µM; IC50 [6]: > 30 µM; IC50 [7]: > 30 µM; IC50 [8]: > 30 µM; IC50 [9]: > 10 µM; IC50 [10]: > 30 µM; % Inhibition of pSmad2 ([2]; 3 μg): 51.3%; % Inhibition of pSmad2 ([2]; 10 μg): 50.5%

**Q.** Which results are given for CC(=O)Nc1cc(Nc2cc(-c3cc(Cl)ccc3F)c(=O)[nH]c2N(C)C)ccn1 [Compound 1.40, N-(4-((5-(5-chloro-2-fluorophenyl)-2-(dimethylamino)-6-oxo-1,6-dihydropyridin-3-yl)amino)pyridin-2-yl)acetamide]?
**A.** IC50 [1]: ≤ 0.5 µM; IC50 [4]: 13.4 µM; IC50 [5]: 28.5 µM; IC50 [11]: 12.6 µM; IC50 [6]: 12.6 µM; IC50 [7]: 15.2 µM; IC50 [12]: 6.09 µM; IC50 [10]: 28.5 µM

**Q.** Which IC50 [1] does the source give for CC(=O)Nc1cc(Nc2cc(-c3cc(Cl)ccc3F)c(=O)[nH]c2C2CC2)ccn1 [Compound 1.69, N-(4-((5-(5-chloro-2-fluorophenyl)-2-cyclopropyl-6-oxo-1,6-dihydropyridin-3-yl)amino)pyridin-2-yl)acetamide] here?
**A.** ≤ 0.5 µM

**Q.** And the IC50 [4]?
**A.** > 30 µM

**Q.** What about the IC50 [11] of the same molecule?
**A.** 15.7 µM

**Q.** And the IC50 [6]?
**A.** 15.3 µM

**Q.** And the IC50 [7]?
**A.** > 30 µM

**Q.** And the IC50 [13]?
**A.** 16.3 µM

**Q.** What about the IC50 [9] of the same molecule?
**A.** 18.7 µM

**Q.** And the IC50 [12]?
**A.** 13 µM

**Q.** How did the IC50 [1] turn out when CCc1[nH]c(=O)c(-c2cc(Cl)ccc2F)cc1Nc1ccnc(NC(C)=O)c1 [Compound 1.70, N-(4-((5-(5-chloro-2-fluorophenyl)-2-ethyl-6-oxo-1,6-dihydropyridin-3-yl)amino)pyridin-2-yl)acetamide] was run?
**A.** ≤ 0.5 µM

**Q.** What about the IC50 [4] of the same molecule?
**A.** > 30 µM

**Q.** And the IC50 [11]?
**A.** 18.2 µM

**Q.** What about the IC50 [6] of the same molecule?
**A.** > 30 µM

**Q.** And the IC50 [7]?
**A.** > 30 µM

**Q.** What about the IC50 [13] of the same molecule?
**A.** 29.2 µM

**Q.** What about the IC50 [9] of the same molecule?
**A.** > 30 µM

**Q.** And the IC50 [12]?
**A.** > 30 µM

**Q.** For CC(C)c1[nH]c(=O)c(-c2ccsc2)cc1Nc1ccnc2ccncc12 [Compound 1.80, 5-((1,6-naphthyridin-4-yl)amino)-6-isopropyl-3-(thiophen-3-yl)pyridin-2(1H)-one], which IC50 [1] is on record?
**A.** 0.5 to 2 µM

**Q.** How did the IC50 [1] turn out when CC(=O)Nc1cc(Nc2cc(-c3cccc(Cl)c3)c(=O)[nH]c2C(C)C)ccn1 [Compound 1.81, N-(4-((5-(3-chlorophenyl)-2-isopropyl-6-oxo-1,6-dihydropyridin-3-yl)amino)pyridin-2-yl)acetamide] was run?
**A.** ≤ 0.5 µM

**Q.** Cc1cc(-c2cc(Nc3ncnc4c3CC(=O)N4)c(C(C)C)[nH]c2=O)ccc1F [Compound 1.82, 4-((5-(4-fluoro-3-methylphenyl)-2-isopropyl-6-oxo-1,6-dihydropyridin-3-yl)amino)-5,7-dihydro-6H-pyrrolo[2,3-d]pyrimidin-6-one] was tested. Which IC50 [1] did it give?
**A.** 2 to 5 µM

**Q.** CC(=O)Nc1cc(Nc2cc(-c3ccc(F)c(C)c3)c(=O)[nH]c2C(C)C)ccn1 [Compound 1.83, N-(4-((5-(4-fluoro-3-methylphenyl)-2-isopropyl-6-oxo-1,6-dihydropyridin-3-yl)amino)pyridin-2-yl)acetamide] was tested. Which IC50 [1] did it give?
**A.** ≤ 0.5 µM

**Q.** CC(C)c1[nH]c(=O)c(-c2ccc(F)c(Cl)c2)cc1Nc1ccnc2[nH]ncc12 [Compound 1.84, 5-((1H-pyrazolo[3,4-b]pyridin-4-yl)amino)-3-(3-chloro-4-fluorophenyl)-6-isopropylpyridin-2(1H)-one] was tested. Which IC50 [1] did it give?
**A.** ≤ 0.5 µM

**Q.** CC(C)c1[nH]c(=O)c(-c2ccc(F)c(Cl)c2)cc1Nc1ncnc2c1CC(=O)N2 [Compound 1.85, 4-((5-(3-chloro-4-fluorophenyl)-2-isopropyl-6-oxo-1,6-dihydropyridin-3-yl)amino)-5,7-dihydro-6H-pyrrolo[2,3-d]pyrimidin-6-one] was tested. Which IC50 [1] did it give?
**A.** 0.5 to 2 µM

**Q.** For CCc1[nH]c(=O)c(-c2ccc(F)c(Cl)c2)cc1Nc1ccnc2ccncc12 [Compound 1.87, 5-((1,6-naphthyridin-4-yl)amino)-3-(3-chloro-4-fluorophenyl)-6-ethylpyridin-2(1H)-one], which IC50 [1] is on record?
**A.** ≤ 0.5 µM

**Q.** For CCc1[nH]c(=O)c(-c2ccc(F)c(Cl)c2)cc1Nc1ccnc(NC(C)=O)c1 [Compound 1.88, N-(4-((5-(3-chloro-4-fluorophenyl)-2-ethyl-6-oxo-1,6-dihydropyridin-3-yl)amino)pyridin-2-yl)acetamide], which IC50 [1] is on record?
**A.** ≤ 0.5 µM

**Q.** How did the IC50 [1] turn out when Cc1cc(-c2cc(Nc3ccnc4ccncc34)c(C(C)C)[nH]c2=O)ccc1F [Compound 1.89, 5-((1,6-naphthyridin-4-yl)amino)-3-(4-fluoro-3-methylphenyl)-6-isopropylpyridin-2(1H)-one] was run?
**A.** 2 to 5 µM

**Q.** Which IC50 [1] does the source give for CCc1[nH]c(=O)c(-c2ccc(F)c(Cl)c2)cc1Nc1ccnc2[nH]ccc12 [Compound 1.90, 5-((1H-pyrrolo[2,3-b]pyridin-4-yl)amino)-3-(3-chloro-4-fluorophenyl)-6-ethylpyridin-2(1H)-one] here?
**A.** ≤ 0.5 µM
